One data set addresses Gamma-secretase. Briefly: Modulatory activity of gamma secretase in human SKNBE2 cells assessed as decrease in Abeta42 levels incubated for 6 hrs by sandwich ELISA. The class given is cell-based.
A further data set is described as follows: in vitro. The conditions noted are these: CD1, mouse, liver microsomes.
Data set [1] addresses Gamma-secretase (Homo sapiens) (UniProt Q96BI3+Q9NZ42+Q8WW43+P49768+Q92542+P49810). Kind of data set: Inhibition of gamma-secretase in human H4 cells overexpressing human wild-type APP assessed as beta-CTF level incubated for 24 hrs by ELISA. It is filed as cell-based.
A short description of data set [2]: Drug concentration in ddY mouse plasma at 30 mg/kg, po measured after 3 hrs by LC-MS/MS analysis. The class given is ADME, organism-based.
A short description of data set [3]: Drug concentration in ddY mouse brain at 30 mg/kg, po measured after 3 hrs by LC-MS/MS analysis. It is filed as ADME, organism-based. The conditions noted are these: read-out: Ct.
Data set [4] can be described thus: […], ratio of drug concentration in brain to plasma at steady state in ddY mouse at 30 mg/kg, po by LC-MS/MS analysis. The class given is ADME, organism-based.
Data set [5] can be described thus: Ratio of drug concentration in ddY mouse brain to IC50 for gamma secretase in human SKNBE2 cells assessed as decrease in Abeta42 levels incubated for 6 hrs by sandwich ELISA. The class given is ADME, cell-based.
In data set [6] the test system is Mus musculus. Kind of data set: In vivo modulatory activity of gamma secretase in ddY mouse assessed as reduction in Abeta42 levels in brain at 30 mg/kg, po measured after 3 hrs by ELISA relative to control. It is filed as functional.
Data set [7] concerns Mus musculus. Briefly: In vivo modulatory activity of gamma secretase in ddY mouse assessed as reduction in Abeta42 levels in plasma at 30 mg/kg, po measured after 3 hrs by ELISA relative to control. It is filed as functional.
The target of data set [8] is T1, CYP3A4 (Homo sapiens, UniProt P08684). Kind of data set: Inhibition of CYP3A4 in human liver microsomes assessed as residual activity at 5 uM using midazolam as substrate measured after 20 mins by LC-MS/MS analysis relative to control. Particulars: probe midazolam, read-out: Activity. The class given is ADME.
In data set [9] the target is T1, CYP3A4. Briefly: Inhibition of CYP3A4 in human liver microsomes assessed as residual activity at 5 uM using midazolam as substrate preincubated with enzyme for 30 mins followed by incubation with substrate for 20 mins by LC-MS/MS analysis relative to control. It is filed as ADME. Particulars: probe midazolam, read-out: Activity.

Calls of active or inactive are those of the source. No cut-off for these calls is given here. A value given as a limit tells only on which side of the number the result lay.

T1 sequence (P08684 whole entry): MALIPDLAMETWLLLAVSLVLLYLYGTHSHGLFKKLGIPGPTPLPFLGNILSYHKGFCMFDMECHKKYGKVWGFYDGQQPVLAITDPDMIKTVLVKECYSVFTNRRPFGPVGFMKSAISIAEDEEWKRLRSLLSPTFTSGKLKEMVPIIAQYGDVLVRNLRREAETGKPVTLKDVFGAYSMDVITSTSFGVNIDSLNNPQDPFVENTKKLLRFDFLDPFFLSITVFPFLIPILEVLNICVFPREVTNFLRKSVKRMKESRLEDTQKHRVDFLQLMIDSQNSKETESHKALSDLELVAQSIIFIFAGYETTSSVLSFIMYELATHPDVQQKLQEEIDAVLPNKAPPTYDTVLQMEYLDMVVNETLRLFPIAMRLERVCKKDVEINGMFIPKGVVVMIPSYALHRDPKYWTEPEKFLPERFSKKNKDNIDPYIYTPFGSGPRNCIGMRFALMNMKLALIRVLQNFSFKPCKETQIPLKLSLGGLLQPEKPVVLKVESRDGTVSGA

Consider `CCN1C(=O)c2ccc(-c3c(C)nc4c(OCc5ccccc5)cccn34)cc2C1(C)C`, for which the IC50 at Gamma-secretase is over 2000 nM. The microsomal CLint at 0.75 h, 0.2 µM in the data set “in vitro” is over 1000 µL/min/mg.
Turning to `CCNC(=O)c1ccc(-c2c(COC)nc3c(OCc4ccccc4)cccn23)cn1`, at Gamma-secretase, the concentration for half-maximal inhibition (IC50) is 6200 nM. The compound further gave an intrinsic metabolic clearance (microsomal CLint) at 0.75 h, 0.2 µM in the data set “in vitro” of 350 µL/min/mg.
As to `CCN1CCc2cc(-c3c(C)nc4c(OCc5ccccc5)cccn34)ccc2C1=O`, the half-maximal inhibitory concentration (IC50) on Gamma-secretase is over 50000 nM.
In the case of `CCNC(=O)c1ccc(-c2c(C)nc3c(OCc4ccc(C)cc4C)cccn23)cn1`, in “in vitro”, the microsomal CLint at 0.75 h, 0.2 µM was determined as 652 µL/min/mg.
In the case of `CCNC(=O)c1ccc(-c2c(C)nc3c(OCc4cccc(F)c4)cccn23)cn1`, at Gamma-secretase, the IC50 turned out to be 240 nM. Also, the intrinsic clearance (microsomal CLint) at 0.75 h, 0.2 µM in the data set “in vitro” was found to be 295 µL/min/mg.
For the compound `CCNC(=O)c1ccc(-c2c(C)nc3c(OCc4ccc(-n5cncn5)cc4)cccn23)cn1`, the intrinsic metabolic clearance (microsomal CLint) at 0.75 h, 0.2 µM in the data set “in vitro” was found to be 49.9 µL/min/mg.
Regarding `CCNC(=O)c1ccc(-c2c(C)nc3c(OCc4ccc(-c5ccccc5)cc4)cccn23)cn1.Cl`, at Gamma-secretase, the 50% inhibitory concentration (IC50) turned out to be 91 nM. Besides, in data set [1], the inhibition result is “inactive”. For the same compound, the concentration at 3 h in data set [2] was found to be 10 µM; in data set [3] it was 4600 nM. The Kp in [4] worked out at 0.45. Besides, the Ratio in data set [5] came out at 51 nmol/g/uM. The inhibition in vivo at 30 mg/kg is 36% in the data set on Mus musculus [6] and 66% in the data set with Mus musculus [7]. For the same compound, the values for the activity at 20 min, 5 µM at CYP3A4 [8] and on CYP3A4 [9] were 101% and 83%, respectively. Further, in the data set “in vitro”, the microsomal CLint at 0.75 h, 0.2 µM came out at 84.7 µL/min/mg.
Turning to `CCNC(=O)c1ccc(-c2c(C)nc3c(OCCc4ccccc4)cccn23)cn1`, the IC50 at Gamma-secretase is 1100 nM. This compound showed a microsomal CLint at 0.75 h, 0.2 µM in the data set “in vitro” of over 1000 µL/min/mg.
For the compound `CCNC(=O)c1ccc(-c2c(C#N)nc3c(OCc4ccccc4)cccn23)cn1`, the microsomal CLint at 0.75 h, 0.2 µM in the data set “in vitro” is 318 µL/min/mg.
`CCNC(=O)c1ccc(-c2c(C)nc3c(OCc4cccc(-c5ccccc5)c4)cccn23)cn1.Cl`: the half-inhibitory concentration (IC50) at Gamma-secretase worked out at 62 nM. Also, the concentration at 3 h came out at 6.6 µM in data set [2] and 770 nM in data set [3]. Also, the Kp in data set [4] worked out at 0.12. The Ratio in data set [5] worked out at 12 nmol/g/uM. Also, the inhibition in vivo at 30 mg/kg in the data set on Mus musculus [6] was determined as 6%. Besides, the intrinsic metabolic clearance (microsomal CLint) at 0.75 h, 0.2 µM in the data set “in vitro” turned out to be 367 µL/min/mg.
For the compound `CCNC(=O)c1ccc(-c2c(C)nc3c(OCc4ccccc4-c4ccccc4)cccn23)cn1`, the IC50 on Gamma-secretase came out at 390 nM. In “in vitro”, this compound had an intrinsic metabolic clearance (microsomal CLint) at 0.75 h, 0.2 µM of over 1000 µL/min/mg.
For `CCNC(=O)c1ccc(-c2c(C)nc3c(OCc4cccc(C(=O)N(C)C)c4)cccn23)cn1` the same measures were over 10000 nM and 77.9 µL/min/mg.
As to `CCNC(=O)c1ccc(-c2c(C)nc3c(OCc4ccccc4F)cccn23)cn1.Cl`, the half-inhibitory concentration (IC50) at Gamma-secretase came out at 150 nM. For the same compound, the concentration at 3 h in data set [2] is 2.7 µM; in data set [3] it was 750 nM. Besides, the Kp in [4] came to 0.27. Besides, in [5], the Ratio is 5 nmol/g/uM. In addition, the inhibition in vivo at 30 mg/kg stood at 6% in the data set on Mus musculus [6] and 16% with Mus musculus [7]. Besides, the intrinsic clearance (microsomal CLint) at 0.75 h, 0.2 µM in the data set “in vitro” was determined as 228 µL/min/mg.
Regarding `CCNC(=O)c1ccc(-c2c(C)nc3c(OCc4ccccc4)cccn23)cc1F`, at Gamma-secretase, the IC50 is over 50000 nM. Moreover, the intrinsic metabolic clearance (microsomal CLint) at 0.75 h, 0.2 µM in the data set “in vitro” was found to be 500 µL/min/mg.
Taken in the same sequence, the figures for `CCNC(=O)c1ccc(-c2c(C)nc3c(OCc4ccccc4)cccn23)cn1` were 580 nM and 324 µL/min/mg.
Consider `CCN1Cc2cc(-c3c(C)nc4c(OCc5ccccc5)cccn34)ccc2C1=O.Cl`, for which the Kp in data set [4] is 0.72. Also, in data set [5], the Ratio was 1.8 nmol/g/uM. The inhibition in vivo at 30 mg/kg in the data set with Mus musculus [6] is 2%.
For `CCNC(=O)c1ccc(-c2c(C)nc3c(OCc4ccc(C)cc4)cccn23)cn1`, the half-inhibitory concentration (IC50) at Gamma-secretase was 370 nM. Besides, the microsomal CLint at 0.75 h, 0.2 µM in “in vitro” was 438 µL/min/mg.
Take `CCNC(=O)c1ccc(-c2c(C)nc3c(OCc4c(C)cc(C)cc4C)cccn23)cn1`: the IC50 on Gamma-secretase is 170 nM. For the same compound, the microsomal CLint at 0.75 h, 0.2 µM in the data set “in vitro” was over 1000 µL/min/mg.
In turn, `CCNC(=O)c1ccc(-c2c(CO)nc3c(OCc4ccccc4)cccn23)cn1` came in with an intrinsic metabolic clearance (microsomal CLint) at 0.75 h, 0.2 µM in “in vitro” of 75.7 µL/min/mg.
